# Laboratory results published in ChEMBL document CHEMBL1127438, “Substituted (S)-phenylpiperidines and rigid congeners as preferential dopamine autoreceptor antagonists: synthesis and structure-activity relationships” (J Med Chem, 1994).
# pKi: −log10 of the molar value.
# Tests used:
# Rattus norvegicus [1] = assay: Evaluated for DOPAC level in nonpretreated habituated rats after subcuteneous dose of 100 micro mol/kg in rat striatum; assay type: functional
# Rattus norvegicus [2] = assay: Evaluated biochemically in nonpretreated habituated rats for (100 uM/kg) subcuteneous dose, Value expressed as locomotor activity (LMA); assay type: functional
# Rattus norvegicus [3] = assay: Evaluated biochemically in reserpine-pretreated habituated rats for (100 umol/kg) subcuteneous dose in rat striatum (DOPAacc), Value expressed as counts/30 min; assay type: functional
# D(2) dopamine receptor [4] = molecular target: T1, D(2) dopamine receptor (Homo sapiens, UniProt P14416); assay: biochemical
# Description: In vitro binding affinity against cloned mammalian dopamine D2 autoreceptor, expressed in CHO-K1 cells, using [3H]U-86170 as radioligand
# Rattus norvegicus [5] = assay: Evaluated for DOPA accumulation (DOPAacc) level in nonhabituated rats after subcuteneous dose (100 uM/kg) in rat striatum; assay type: functional
# D(2) dopamine receptor [6] = molecular target: T1, D(2) dopamine receptor; assay: biochemical; remark: listed apart in the source
# Description: Affinity against recombinant dopamine receptor (DA) D2 expressed in CHO-K1 cells, using [3H]-spiperone as radioligand
# D(2) dopamine receptor [7] = molecular target: T2, D(2) dopamine receptor (Rattus norvegicus, UniProt P61169)
# Description: Affinity against striatal dopamine D2 receptors using [3H]spiperone as radioligand in rats.
# Rattus norvegicus [8] = assay: Evaluated biochemically in nonhabituated rats for (100 umol/kg) subcuteneous dose, Value expressed as locomotor activity (LMA); assay type: functional
# Rattus norvegicus [9] = assay: Effect of (60 min after administration of 200 (uM/kg) subcuteneous dose on DA release in brain dialysis model of rat striatum; Values expressed as percent of saline controls; assay type: functional
# Rattus norvegicus [10] = assay: Tested in vivo for its ability to displace DA receptor agonist (Di-Pr-5,6-ADTN) from rat striatal binding sites at 0.25 uM/Kg sc. dose (after subtraction of cerebellum levels); assay type: functional
# D(3) dopamine receptor [11] = molecular target: T3, D(3) dopamine receptor (Homo sapiens, UniProt P35462); assay: Tested for in vitro binding affinity against cloned mammalian dopamine D3 receptor, expressed in CHO-K1 cells, using [3H]spiperone as radioligand; assay type: cell-based
# Rattus norvegicus [12] = species: Rattus norvegicus; assay: Tested in vio for concomitant ability to antagonize the locomotor activity of rat induced by Di-Pr-5,6-ADTN, Value expressed as locomotor activity (LMA), % of control; assay type: functional; parameters: scale not given: the % may be the effect or the level left
# Rattus norvegicus [13] = assay: Evaluated biochemically in reserpine-pretreated habituated rats for (100 umol/kg) subcuteneous dose, Value expressed as locomotor activity (LMA); assay type: functional
# Rattus norvegicus [14] = assay: Evaluated for biochemical levels of DOPAC in nonpretreated habituated rats for subcuteneous dose of 100 micro mol/kg in rat striatum; assay type: functional
# Rattus norvegicus [15] = assay: Evaluated for locomotor activity in nonpretreated habituated rats in 100 umol/kg of subcuteneous dose; assay type: functional; parameters: unit not given here
# D(3) dopamine receptor [16] = molecular target: T3, D(3) dopamine receptor; assay: Tested for in vitro binding affinity against cloned mammalian dopamine autoreceptor (DA) receptors expressed in CHO-K1 cells [3H]-spiperone as radioligand; assay type: cell-based
# Dopamine receptor = assay: Tested for in vitro binding affinity against cloned mammalian dopamine autoreceptor (DA) receptors expressed in CHO-K1 cells using [3H]U-86170 as radioligand; assay type: cell-based
# Rattus norvegicus [17] = assay: Evaluated for DOPA accumulation in nonhabituated rats at 100 umol/kg of subcuteneous dose in rat striatum; assay type: functional
# D(2) dopamine receptor [18] = molecular target: T2, D(2) dopamine receptor; assay: Tested for affinity against striatal dopamine autoreceptor (DA) D2 receptors using [3H]spiperone as radioligand in rats.
# Rattus norvegicus [19] = assay: Effect (60 min after administration of 200 (micro mol/kg) subcuteneous dose on DA release in brain dialysis model of rat; assay type: functional
# Rattus norvegicus [20] = assay: Compound is evaluated for locomotor activity in nonhabituated rats at 100 umol/kg of subcuteneous dose; assay type: functional
# Rattus norvegicus [21] = assay: Compound is evaluated for locomotor activity in reserpine-pretreated habituated rats at 100 umol/kg of subcuteneous dose; assay type: functional
# Rattus norvegicus [22] = assay: Evaluated for locomotor activity in nonpretreated habituated rats at 100 umol/kg of subcuteneous dose; assay type: functional; parameters: unit not given here
# Rattus norvegicus [23] = assay: Compound is evaluated for DOPA accumulation in reserpine-pretreated habituated rats at 100 umol/kg of subcuteneous dose in rat striatum; assay type: functional
# Rattus norvegicus [24] = assay: Effect (60 min after administration of 200 (micro mol/kg) subcuteneous dose on DA release in brain dialysis model of rat striatum; assay type: functional
# Rattus norvegicus [25] = assay: Compound is evaluated biochemically in nonhabituated rats for (100 umol/kg) subcuteneous dose, Value expressed as locomotor activity (LMA); assay type: functional
# T1 sequence (P14416 whole entry): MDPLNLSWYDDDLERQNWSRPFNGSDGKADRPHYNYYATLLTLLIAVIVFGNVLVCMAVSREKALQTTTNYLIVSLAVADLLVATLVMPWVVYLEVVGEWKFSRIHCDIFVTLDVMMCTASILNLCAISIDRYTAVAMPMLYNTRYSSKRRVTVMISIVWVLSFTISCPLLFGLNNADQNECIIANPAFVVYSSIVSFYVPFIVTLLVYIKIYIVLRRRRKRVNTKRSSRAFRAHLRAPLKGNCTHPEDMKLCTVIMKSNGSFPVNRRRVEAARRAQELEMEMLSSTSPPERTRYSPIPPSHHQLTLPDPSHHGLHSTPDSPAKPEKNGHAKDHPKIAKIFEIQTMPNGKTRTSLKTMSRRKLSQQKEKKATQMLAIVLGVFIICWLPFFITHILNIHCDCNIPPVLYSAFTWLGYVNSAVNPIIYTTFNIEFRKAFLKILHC
# T3 sequence (P35462 whole entry): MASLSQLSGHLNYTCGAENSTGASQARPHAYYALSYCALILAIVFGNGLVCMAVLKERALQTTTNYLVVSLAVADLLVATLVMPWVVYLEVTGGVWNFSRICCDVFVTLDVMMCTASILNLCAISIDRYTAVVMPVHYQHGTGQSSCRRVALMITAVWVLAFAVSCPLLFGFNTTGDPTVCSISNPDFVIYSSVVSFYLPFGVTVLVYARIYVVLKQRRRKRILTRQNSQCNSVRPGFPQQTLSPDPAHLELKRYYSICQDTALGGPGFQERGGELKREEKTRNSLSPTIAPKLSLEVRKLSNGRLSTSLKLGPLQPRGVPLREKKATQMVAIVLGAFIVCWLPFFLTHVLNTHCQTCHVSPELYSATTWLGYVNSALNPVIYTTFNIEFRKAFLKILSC
# T2 sequence (P61169 whole entry): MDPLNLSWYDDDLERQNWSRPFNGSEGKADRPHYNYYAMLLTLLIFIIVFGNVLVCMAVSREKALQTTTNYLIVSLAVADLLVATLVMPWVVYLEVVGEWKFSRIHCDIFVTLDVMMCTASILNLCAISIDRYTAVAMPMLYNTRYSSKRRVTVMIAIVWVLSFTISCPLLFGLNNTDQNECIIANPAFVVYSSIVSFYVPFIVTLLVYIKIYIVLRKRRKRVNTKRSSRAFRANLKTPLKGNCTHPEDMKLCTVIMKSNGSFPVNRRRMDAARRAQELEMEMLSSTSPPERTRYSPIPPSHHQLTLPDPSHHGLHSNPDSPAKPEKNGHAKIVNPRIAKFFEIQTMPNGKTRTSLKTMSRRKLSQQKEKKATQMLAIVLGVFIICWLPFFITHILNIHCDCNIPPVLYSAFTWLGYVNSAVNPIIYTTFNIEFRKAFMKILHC
Structure (SMILES),Activity (Rattus norvegicus [1]) [%],Control (Rattus norvegicus [2]) [%],pKi (D(2) dopamine receptor [4]),pKi (D(2) dopamine receptor [6]),pKi (D(2) dopamine receptor [7]),pKi (D(3) dopamine receptor [11]),further results
CCCN[C@@H]1CCc2c(OC)cccc2[C@@H]1C,346,354,–,–,–,–,–
C=CCN1CC[C@H]2c3cccc(OC)c3CC[C@H]21,314,182,–,–,–,–,–
CCCN1CCC[C@@H](c2cccc(S(C)(=O)=O)c2)C1,250,368,6.35,< 6.66,5.20,5.88,Activity (Rattus norvegicus [3]): 95%; Activity (Rattus norvegicus [5]): 319%; Locomotor activity (% of control) (Rattus norvegicus [8]): 135%; Activity (Rattus norvegicus [9]): 293%; Control (Rattus norvegicus [10]): 45%; Control (Rattus norvegicus [12]): 101%; Control (Rattus norvegicus [13]): 10%
CCCN1CCC[C@@H](c2cccc(-c3ccsc3)c2)C1,88,229,6.87,< 6.66,6.12,7.11,Activity (Rattus norvegicus [9]): 106%
CCCN1CCC[C@@H](c2ccc(OS(=O)(=O)C(F)(F)F)c(OS(=O)(=O)C(F)(F)F)c2)C1,–,–,–,< 6.66,–,–,Activity (Rattus norvegicus [14]): 96%; LMA (Rattus norvegicus [15]): 36; pKi (D(3) dopamine receptor [16]): 6.47; Ki (Dopamine receptor): 1100 nM
CCCN1CCC[C@@H](c2ccc(OS(=O)(=O)C(F)(F)F)cc2)C1,–,–,–,< 6.66,–,–,Activity (Rattus norvegicus [14]): 85%; pKi (D(3) dopamine receptor [16]): 5.94; Ki (Dopamine receptor): 1736 nM; Activity (Rattus norvegicus [17]): 495%; pKi (D(2) dopamine receptor [18]): 4.93
N#Cc1cccc([C@@H]2CCCN(CC3CC3)C2)c1,–,–,6.28,< 6.66,–,6.28,Locomotor activity (% of control) (Rattus norvegicus [8]): 191%
CCN1CCC[C@@H](c2cccc(OS(=O)(=O)C(F)(F)F)c2)C1,–,–,–,< 6.66,–,–,Activity (Rattus norvegicus [14]): 300%; Activity (Rattus norvegicus [19]): 120%; Activity (Rattus norvegicus [17]): 286%; pKi (D(2) dopamine receptor [18]): 5.93
CCCN1CCC[C@@H](c2cccc(S(=O)(=O)N(C)C)c2)C1,355,548,–,–,5.47,6.77,Activity (Rattus norvegicus [9]): 220%
CCC(C)N1CCC[C@@H](c2cccc(C#N)c2)C1 (some centres not stated),267,346,6.73,7.01,5.98,6.98,Activity (Rattus norvegicus [9]): 256%; Control (Rattus norvegicus [10]): 59%; Control (Rattus norvegicus [12]): 56%
CN1CCC[C@@H](c2cccc(C#N)c2)C1,174,–,5.98,< 6.66,5.08,5.75,Activity (Rattus norvegicus [5]): 215%; Locomotor activity (% of control) (Rattus norvegicus [8]): 79%
CCN1CCC[C@@H](c2cccc(C#N)c2)C1,264,351,6.63,< 6.66,5.63,6.29,Activity (Rattus norvegicus [5]): 318%; Locomotor activity (% of control) (Rattus norvegicus [8]): 113%; Activity (Rattus norvegicus [9]): 212%
C#CCN1CCC[C@@H](c2cccc(C#N)c2)C1,146,297,5.93,< 6.66,< 4.82,< 5.87,–
CCCN1CCC[C@@H](c2cccc(C(N)=O)c2)C1,114,203,< 5.73,< 6.66,< 4.82,< 5.89,Activity (Rattus norvegicus [3]): 97%
CCCN1CCC2c3cccc(OS(=O)(=O)C(F)(F)F)c3CCC21 (configuration not stated),–,–,–,< 6.66,–,–,Activity (Rattus norvegicus [14]): 223%; LMA (Rattus norvegicus [15]): 687; pKi (D(3) dopamine receptor [16]): 7.21; Ki (Dopamine receptor): 89 nM; pKi (D(2) dopamine receptor [18]): 7.09
CCCN1CCC[C@@H](c2cccc(Br)c2)C1,–,–,–,6.77,–,–,Activity (Rattus norvegicus [14]): 145%; LMA (Rattus norvegicus [20]): 140; LMA (Rattus norvegicus [21]): 15; pKi (D(3) dopamine receptor [16]): 6.77; Ki (Dopamine receptor): 106 nM; LMA (Rattus norvegicus [22]): 470; Activity (Rattus norvegicus [23]): 101%; Activity (Rattus norvegicus [17]): 199%; Activity (Rattus norvegicus [24]): 363%; pKi (D(2) dopamine receptor [18]): 6.27
C=CCN1CCC2c3cccc(C#N)c3CCC21 (configuration not stated),172,292,6.01,–,< 6.76,< 6.34,–

Structure (SMILES),Activity (Rattus norvegicus [1]) [%],Control (Rattus norvegicus [2]) [%],pKi (D(2) dopamine receptor [4]),pKi (D(2) dopamine receptor [6]),pKi (D(2) dopamine receptor [7]),pKi (D(3) dopamine receptor [11]),further results
CCCN1CCC[C@@H](c2cccc(CO)c2)C1,138,187,6.62,< 6.66,6.39,5.84,Activity (Rattus norvegicus [3]): 50%; Activity (Rattus norvegicus [5]): 118%; Activity (Rattus norvegicus [9]): 175%; Control (Rattus norvegicus [13]): 3%; Control (Rattus norvegicus [25]): 123%
C=CCN1CCC[C@@H](c2cccc(C#N)c2)C1,–,–,6.60,< 6.66,5.72,6.18,Activity (Rattus norvegicus [3]): 85%; Activity (Rattus norvegicus [5]): 257%; Locomotor activity (% of control) (Rattus norvegicus [8]): 143%; Activity (Rattus norvegicus [9]): 522%; Control (Rattus norvegicus [10]): 59%; Control (Rattus norvegicus [12]): 46%; Control (Rattus norvegicus [13]): 3%
CCCN1CCC[C@@H](c2cccc(C)c2)C1,–,–,–,< 6.66,–,–,pKi (D(3) dopamine receptor [16]): 6.24; Ki (Dopamine receptor): 430 nM; pKi (D(2) dopamine receptor [18]): 6.03
CCCN1CCC[C@@H](c2cccc(NS(=O)(=O)C(F)(F)F)c2)C1,91,305,–,< 6.66,–,< 5.70,–
CC(C)N1CCC[C@@H](c2cccc(C#N)c2)C1,–,366,6.97,< 6.66,6.14,6.57,Activity (Rattus norvegicus [5]): 301%; Locomotor activity (% of control) (Rattus norvegicus [8]): 102%
N#Cc1cccc([C@@H]2CCCN(CCc3ccccc3)C2)c1,–,510,7.66,< 6.66,6.98,7.23,Activity (Rattus norvegicus [5]): 176%; Locomotor activity (% of control) (Rattus norvegicus [8]): 120%
N#Cc1cccc([C@@H]2CCCNC2)c1,167,575,6.50,< 6.66,–,6.20,Activity (Rattus norvegicus [5]): 271%; Locomotor activity (% of control) (Rattus norvegicus [8]): 193%
CCCN1CCC[C@@H](c2ccccc2OS(=O)(=O)C(F)(F)F)C1,–,–,–,< 6.66,–,–,Activity (Rattus norvegicus [14]): 83%; pKi (D(3) dopamine receptor [16]): 5.51; Ki (Dopamine receptor): 315 nM; Activity (Rattus norvegicus [17]): 102%
CCCN1CCC[C@@H](c2cccc(C(=O)OC)c2)C1,140,297,< 5.73,< 6.66,5.66,< 5.89,–
CCCN1CCC[C@@H](c2cccc(CC#N)c2)C1,302,887,7.16,< 6.66,5.91,6.29,Activity (Rattus norvegicus [3]): 57%; Activity (Rattus norvegicus [5]): 207%; Locomotor activity (% of control) (Rattus norvegicus [8]): 147%; Control (Rattus norvegicus [13]): 16%
CN1CCC[C@@H](c2cccc(OS(=O)(=O)C(F)(F)F)c2)C1,–,–,–,< 6.66,–,–,pKi (D(2) dopamine receptor [18]): 4.93
N#Cc1cccc([C@@H]2CCCN(CCCc3ccccc3)C2)c1,280,484,7.54,7.22,7.10,7.44,–
CCCCN1CCC[C@@H](c2cccc(C#N)c2)C1,257,1382,–,< 6.66,6.21,–,Activity (Rattus norvegicus [3]): 71%; Control (Rattus norvegicus [13]): 12%
C=CCN1CCC2c3cccc(C(N)=O)c3CCC21 (configuration not stated),–,–,< 5.82,< 6.66,< 6.76,< 5.82,–
CCCN1CCCC2c3cccc(OS(=O)(=O)C(F)(F)F)c3CCC21 (stereo in doubt; 45),–,–,–,–,–,–,Activity (Rattus norvegicus [14]): 94%; LMA (Rattus norvegicus [15]): 266; pKi (D(3) dopamine receptor [16]): 6.23; Ki (Dopamine receptor): 744 nM; pKi (D(2) dopamine receptor [18]): < 6.34
C=CCN1CC[C@@H]2c3cccc(OS(=O)(=O)C(F)(F)F)c3CC[C@@H]21 (stereo in doubt; 49),–,–,–,< 6.66,–,–,Activity (Rattus norvegicus [14]): 108%; LMA (Rattus norvegicus [15]): 116; pKi (D(3) dopamine receptor [16]): 6.76; Ki (Dopamine receptor): 353 nM; pKi (D(2) dopamine receptor [18]): < 6.76
CCCN1CCC[C@@H](c2cccc(O)c2)C1 [PRECLAMOL],203,119,–,–,–,–,Activity (Rattus norvegicus [3]): 25%; Activity (Rattus norvegicus [5]): 141; Locomotor activity (% of control) (Rattus norvegicus [8]): 40%; Activity (Rattus norvegicus [9]): 190; Control (Rattus norvegicus [13]): 12%
